In one assay the test system is Hela cells. As to the kind of experiment: β-Galactosidase activity recovered from cell extracts after lipofectin delivery or translocation (4 hours). The class given is cell-based. On the procedure:
(§1) The quantitative measurement of translocation was carried out by reading the activity of a β-Galactosidase enzyme that was included as part of a fusion protein with the translocation agents. When provided with the appropriate galactoside substrate, the enzyme deglycosylates the substrate leading to the accumulation of dioxetane. During a following incubation in a different buffer, the dioxetane becomes deprotonated and decomposes with emission of light (425 nm) that can be read using a luminometer. This system, therefore, provided a sensitive means of detecting the amount of the β-Galactosidase present in the samples, and ultimately, the amount of fusion protein delivered into the cells.
The experiments were carried out using 8-well chamber slides. 3×10^4 Hela cells were seeded into each well, suplemented with 400 μl RPMI+10% FCS medium and incubated overnight at 37° C. and 5% CO2. The following day, the appropriate dilutions of protein were made into RPMI medium and added to the wells. Both lipofectin delivery and translocation experiments were carried out for 4 hours.
The experiments were carried out on two different days: the first day a negative control β-Galactosidase and the H1.4B-Bgal were tested, and the second day the antennapedia fusion (Antp-βgal) was tested. A lipofectin delivery of β-Galactosidase, provided by Roche, was performed on both days as positive control for delivery into the cells.
(§2) It was decided to start with the amount of each that gave a value close to 6×10^7 rlu, as this is the limit of the equipment's capacity. From that value, three consecutive ⅕ fold dilutions were made in each case.
(§3) Therefore, the original activity of the different proteins was also measured in parallel to the activity recovered after translocation, in order to make sure that all the proteins were standardised to an original maximum activity of around 6×10^7 rlu.
The results after translocation were obtained by reading the β-Galactosidase recovered from the cell extracts and are shown in Tables 6 and 7. […] In any case, the values for the biggest amounts of β-Galactosidase protein are clearly lower than those obtained from the delivery systems.

The nature of assay [1]: β-Galactosidase activity of the protein constructs before delivery (luminometer). The conditions noted are these: 80 ng protein; Table 6 (first day). The class given is biochemical. On the procedure:
as §1, §2, §3

Data on 2 substances can be found in patent US20040234527A1, “Peptides for use as translocation factors” (priority 2001, published 2004).

Values joined by “and” are separate entries in the source; they are usually repeats but may differ in a detail not shown here. Identical values can stand only once.

Regarding “β-Gal positive control (Roche): β-Galactosidase provided by Roche, delivered with lipofectin reagent as positive control for delivery into the cells”, the Activity after transfection in the assay with Hela cells (1.6 ng protein, Table 6 (first day)) was 50.353 rlu and 47.212 rlu; in the assay on Hela cells (1.6 ng protein, Table 7 (second day)) it was 40.121 rlu and 33.578 rlu; in the assay with Hela cells (8 ng protein, Table 6 (first day)) it was 140.342 rlu and 162.319 rlu; in the assay on Hela cells (8 ng protein, Table 7 (second day)) it was 164.745 rlu and 157.913 rlu; with Hela cells (40 ng protein, Table 6 (first day)), 635.228 rlu and 675.640 rlu; with Hela cells (40 ng protein, Table 7 (second day)), 715.773 rlu and 744.405 rlu.
“β-Galactosidase: β-Galactosidase enzyme without translocation agent, negative control”: in assay [1], the Protein activity entry is listed as “overload”. Moreover, the Activity after transfection with Hela cells (640 pg protein, Table 6 (first day)) was 25.076 rlu and 28.710 rlu; in the assay on Hela cells (3.2 ng protein, Table 6 (first day)), 29.527 rlu and 35.227 rlu; in the assay with Hela cells (15 ng protein, Table 6 (first day)), 56.941 rlu; with Hela cells (16 ng protein, Table 6 (first day)), 55.164 rlu; with Hela cells (80 ng protein, Table 6 (first day)) it was 242.200 rlu and 298.589 rlu.
